Assay results from patent US9980973B2, “Bicyclic heterocycle compounds and their uses in therapy” (ASTEX THERAPEUTICS LIMITED, priority 2012, dated 2018).
Counter-ions that a name gives are not always drawn. Like-named read-outs stand apart in the source and are kept apart here.

What was measured:
[1] = target: T1, BIR3 domain of human XIAP (Homo sapiens, UniProt P98170); assay: XIAP in vitro competitive displacement binding assay (fluorescence polarization); details: PI at 0.04 μM
T1 construct: BIR3 domain of human XIAP (residues 252-350) fused to a His-tag; His-tag (cleaved yes); made in house; host or cells: Escherichia coli

[2] = target: T2, BIR3 domain of human cIAP-1 (Homo sapiens, UniProt Q13490); assay: cIAP-1 in vitro competitive displacement binding assay (fluorescence polarization); details: PI at […]
T2 construct: human cIAP-1 (residues 267-363) fused to a GST-tag; GST-tag (cleaved yes); made in house; host or cells: Escherichia coli

[3] = test system: EVSA-T (human breast carcinoma); assay: Anti-proliferative activity, Alamar Blue assay, EVSA-T; type: cell-based; details: EVSA-T cells, 72 hours, Alamar Blue, read-out: EVSA-T prolif

T1 sequence (P98170 252-350): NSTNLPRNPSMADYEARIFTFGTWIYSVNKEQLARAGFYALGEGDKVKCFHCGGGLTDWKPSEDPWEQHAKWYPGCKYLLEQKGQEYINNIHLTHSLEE
T2 sequence (Q13490 267-363): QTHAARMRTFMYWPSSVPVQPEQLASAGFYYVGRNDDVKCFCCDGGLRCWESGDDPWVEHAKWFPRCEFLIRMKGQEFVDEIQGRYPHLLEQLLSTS

SMILES | Xiap IC50 or PI μM (PI) ([1]; 60 min, dihydrochloride, 0.04 µM) | cIAP1 IC50 or PI μM (PI) ([2]; 180 min, dihydrochloride, […]) | EC50 ([3]; dihydrochloride) | Xiap IC50 or PI μM (PI) ([1]; 60 min, 0.04 µM) | cIAP1 IC50 or PI μM (PI) ([2]; 180 min, […]) | EC50 [3] | Xiap IC50 or PI μM (PI) [1] | cIAP1 IC50 or PI μM (PI) [2]
C[C@@H]1CN(CC(=O)N2CC(C)(C)c3ncc(C(O)c4ccccc4F)cc32)[C@@H](CN2[C@H](C)COC[C@H]2C)CN1 (single isomer, unassigned) [Example 108, 2-[(2R,5R)-2-{[(3R,5R)-3,5-Dimethylmorpholin-4-yl]methyl}-5-methylpiperazin-1-yl]-1-{6-[(R or S)-(2-fluorophenyl)-(hydroxy)methyl]-3,3-dimethyl-1H,2H,3H-pyrrolo[3,2-b]pyridin-1-yl}ethan-1-one dihydrochloride] | 66%@0.04 | 97%@0.012 | 2.7 nM |  |  |  |  | 
C[C@@H]1CN(CC(=O)N2CC(C)(C)c3ncc(C(O)c4cccc(F)c4F)cc32)[C@@H](CN2[C@H](C)COC[C@H]2C)CN1 (single isomer, unassigned) [Example 112, (R or S)-1-{6-[(2,3-Difluorophenyl)(hydroxy)meth-yl]-3,3-dimethyl-1H,2H,3H-pyrrolo[3,2-b]pyridin-1-yl}-2-[(2R,5R)-2-{[(3R,5R)-3,5-dimethylmorpholin-4-yl]methyl}-5-methylpiperazin-1-yl]ethan-1-one dihdrochloride] |  |  |  | 47%@0.04 | 90%@0.012 | 20 nM |  | 
C[C@@H]1CN(CC(=O)N2CC(C)(C)c3cnc(Cc4ccc(F)cc4)cc32)[C@@H](CN2CCOC[C@]2(C)CO)CN1.Cl.Cl [Example 61, 1-{6-[(4-Fluorophenyl)methyl]-3,3-dimethyl-1H,2H,3H-pyrrolo[3,2-c]pyridin-1-yl}-2-[(2R,5R)-2-{[(3S)-3-(hydroxymethyl)-3-methylmorpholin-4-yl]methyl}-5-methylpiperazin-1-yl]ethan-1-one, dihydrochloride] |  |  |  |  |  | 6 nM | 57%@0.04 | 99%@0.012
